Experiments:
TYK2 JH2 pseudokinase = TYK2 JH2 pseudokinase (Homo sapiens, UniProt P29597); assay: TYK2 JH2 enzyme binding assay in vitro (TR-FRET)
Protocol: Instrumentation: Envision microplate reader (PerkinElmer), ECHO550 (LABCYTE).
Method: the inhibitory effects of compounds on TYK2 JH2 pseudokinase was tested using time-resolved fluorescence resonance energy transfer (TR-FRET) method.
Procedure: compounds were prepared into 10 mM stock solutions using DMSO, which were further diluted into compound dilutions (200×) with different concentration gradients in DMSO, and the compound dilutions (200×) were transferred to a 384-well assay plate using an Echo instrument. […] TYK2 JH2 pseudokinase, Tb antibody, and Tracer working solutions were prepared using the dilution buffer, respectively. 5 uL of TYK2 JH2 pseudokinase working solution (final concentration 0.5 nM) was added to a 384-well assay plate, and centrifuged at 1000 rpm for 30 s. 5 uL of Tb antibody (final concentration 1×) was added to the 384-well assay plate, and centrifuged at 1000 rpm for 30 s. 5 uL of Tracer (final concentration 0.5 nM) was added to the 384-well assay plate, and centrifuged at 1000 rpm for 30 s. Incubation was performed at room temperature for 60 min, and then at 4° C. overnight.
Data Analysis: XLfit, a software developed by IDBS and integrated into the Microsoft Excel environment, was used to process and analyze the test data.

[1] = biological target: Ba/F3 cell line expressing TYK2 (Homo sapiens, UniProt P29597, cells depend on it, form not given); assay: In vitro cellular inhibition assay (Ba/F3 cell proliferation, CellTiter-Glo); type: cell-based; conditions: read-out: IC50 (the source's name)
Outline: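 Ba/F3 cells dependent on TYK2 were exposed to serially diluted compound, then viability was read by CellTiter-Glo luminescence. Inhibition (%) was calculated from RLU relative to max and min controls, and IC50 was obtained by curve fitting.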

TYK2 JH2 pseudokinase, sequence (P29597 589-875 limits assumed): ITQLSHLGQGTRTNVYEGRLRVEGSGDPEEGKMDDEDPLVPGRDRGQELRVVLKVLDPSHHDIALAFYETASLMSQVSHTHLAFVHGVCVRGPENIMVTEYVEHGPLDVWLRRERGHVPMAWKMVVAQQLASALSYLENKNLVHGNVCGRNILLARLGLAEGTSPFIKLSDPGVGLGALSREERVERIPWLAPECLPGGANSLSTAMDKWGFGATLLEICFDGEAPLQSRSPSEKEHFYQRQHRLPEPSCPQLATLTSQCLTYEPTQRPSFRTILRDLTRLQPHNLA

Which IC50 (TYK2 JH2 pseudokinase) does the source give for [2H]C([2H])([2H])NC(=O)c1nnc(NC(=O)C2CC2)cc1Nc1cccc(C(=O)Nc2cccc(C)c2)c1OC [Example 3] here?
The IC50 was 0.274 nM.

And the GI50 [1]?
Its GI50 is 1 to 5 nM.

From patent US20260098017A1, “NOVEL AROMATIC RING DERIVATIVE CONTAINING AMIDE SUBSTITUTION AND USE THEREOF” (TIANJIN PHARMACEUTICAL BIOTECHNOLOGY CO., LTD., priority 2022, published 2026)
